PubChem BioAssay (NCI)
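Values below derive from 48-hour exposures of cells grown in 96-well plates, with endpoints linearly interpolated between the two concentrations bracketing the appropriate inhibition level. At the TGI there is no net growth.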

Legend:
Assay in all cases: inhibition of tumour cell growth, NCI panel, 48 h
EKVX NSCLC = test system: EKVX NSCLC
A498 renal = test system: A498 renal
SN12C renal = test system: SN12C renal
NCI-H522 lung = test system: NCI-H522 lung
NCI-H226 lung = test system: NCI-H226 lung
HCC-2998 colon = test system: HCC-2998 colon
SK-OV-3 ovarian = test system: SK-OV-3 ovarian
HS 578T breast = test system: HS 578T breast
NCI-H23 lung = test system: NCI-H23 lung
OVCAR-5 ovarian = test system: OVCAR-5 ovarian
A549 NSCLC = test system: A549 NSCLC
SK-MEL-5 melanoma = test system: SK-MEL-5 melanoma
CAKI-1 renal = test system: CAKI-1 renal
NCI/ADR-RES ovarian = test system: NCI/ADR-RES ovarian
LOX IMVI melanoma = test system: LOX IMVI melanoma
786-0 renal = test system: 786-0 renal
OVCAR-3 ovarian = test system: OVCAR-3 ovarian
SK-MEL-2 melanoma = test system: SK-MEL-2 melanoma
PC-3 prostate = test system: PC-3 prostate
UACC-257 melanoma = test system: UACC-257 melanoma

Row | SMILES | TGI (EKVX NSCLC) [µM] | TGI (A498 renal) [µM] | TGI (SN12C renal) [µM] | TGI (NCI-H522 lung) [µM] | TGI (NCI-H226 lung) [µM] | TGI (HCC-2998 colon) [µM] | TGI (SK-OV-3 ovarian) [µM] | TGI (HS 578T breast) [µM] | TGI (NCI-H23 lung) [µM] | TGI (OVCAR-5 ovarian) [µM] | TGI (A549 NSCLC) [µM] | TGI (SK-MEL-5 melanoma) [µM] | TGI (CAKI-1 renal) [µM] | TGI (NCI/ADR-RES ovarian) [µM] | TGI (LOX IMVI melanoma) [µM] | TGI (786-0 renal) [µM] | TGI (OVCAR-3 ovarian) [µM] | TGI (SK-MEL-2 melanoma) [µM] | TGI (PC-3 prostate) [µM] | TGI (UACC-257 melanoma) [µM]
1 | CCN(CC)CCNc1ccc2nnn3c4ccc(O)cc4c(=O)c1c23 | 21.5 | 16 | 17.8 | 20.9 | 14.7 | 15.4 | 40.3 | 26.6 | 19.7 | 22.4 | 13.3 | 15.7 | 13.4 | 12.2 | 4.05 | 15.6 | 22.7 | 25.2 | 16.9 | 24.9
2 | O=C1C=C(OCCCCl)C(=O)c2c(O)ccc(O)c21 | 3.19 | 3.57 | 1.12 | 4.26 | 3.7 | 3.37 | 3.85 | 6.56 | 0.479 | 2.85 | 0.645 | 0.306 | 3.4 | 7.3 | 0.659 | 2.94 | 1.38 | 2.43 | 3.98 | 0.358
3 | CCOC(=O)C(=O)/C(=C/N1C(=O)CC(=O)NC1=S)C(=O)OCC | > 100 | > 100 | > 100 | > 100 | > 100 | > 100 | > 100 | > 100 | > 100 | > 100 | > 100 | > 100 | > 100 | > 100 | > 100 | > 100 | > 60.2 | > 100 | > 100 | > 100
4 | CCOC(=O)c1[nH]cc(C)c1-c1ccc2c(-c3ccccc3)nc3ccccc3n12 | 18.2 | 9.98 | 15.2 | 4.79 | 20.1 | 9.97 | 23.5 | 6.5 | 23.3 | 64.5 | 18.5 | 6.29 | 17.8 | 10.3 | 12.3 | 12.8 | 18.5 | 16.8 | 12.8 | 24.7
5 | COC(=O)C1=C(C)C=C(N2CCOCC2)C(C(=O)OC)C1c1ccccc1 (configuration not stated) | > 10 | > 10 | > 10 | > 10 | > 10 | > 10 | > 10 | > 10 | > 10 | > 10 | > 10 | > 10 | > 10 | > 10 | > 10 | > 10 | > 10 | > 10 | > 10 | > 10
6 | Cc1cccc(-c2cc(=O)c3c(C)cc(C)nc3[nH]2)c1 | > 100 | 29.3 | > 100 | 2.85 | 31.4 | > 48.1 | > 100 | > 20.3 | 40.4 | > 100 | > 100 | 15.8 | > 100 | 4.68 | > 100 | > 100 | 4.6 | > 100 | > 100 | > 100
7 | c1ccc2c(c1)NC1(N3CCCCC3)CCCCC21 (configuration not stated) | > 100 | 98 | > 100 | > 100 | > 100 | > 100 | > 100 | > 100 | > 100 | > 100 | > 100 | > 100 | > 100 | > 100 | > 100 | > 100 | > 100 | > 100 | > 100 | > 100
8 | COc1ccc(C2CC3(c4ccccc4)ON=C(c4ccccc4)N3c3ccccc3S2)cc1 (configuration not stated) | > 100 | > 100 | > 100 | > 100 | > 100 | > 100 | > 100 | > 100 | > 100 | > 100 | > 100 | > 100 | > 100 | > 100 | > 100 | > 100 | > 100 |  | > 100 | > 100
9 | O=C(CSc1nc2ccc(I)cc2c(=O)n1Cc1ccccc1)NNC(=O)c1ccccc1 | 17.9 | 25.7 | > 100 | 25.8 | 15.5 | > 100 | 44.9 | 9.4 | 68.8 | 40.5 | 32.6 | 33 | 12.3 | 49 | > 100 | 21 | 90.4 | 19.2 | 24 | 57.2
10 | OCCOc1ccccc2cccc1-2 | > 100 | > 100 | > 100 | > 100 | > 100 | > 100 | > 100 | > 100 | > 100 | > 100 | > 100 | > 100 | > 100 | > 100 | > 100 | > 100 | > 100 | > 100 | > 100 | > 100
11 | CCOC(=O)C(NC(=O)c1ccccc1)(Nc1ccc(Cl)cc1C(F)(F)F)C(F)(F)F (configuration not stated) | > 100 | 47.1 | > 44.2 | 7.29 | > 100 | > 79.4 | > 100 | > 100 | > 78 | > 100 | > 100 | > 37.5 | > 55.7 | 10.6 | > 100 | > 100 | 18.7 | > 45.1 | 29.2 | > 100
12 | COC(=O)[C@H](Cc1ccc(OC(C)(C)C)cc1)N[C@H](C)C(=O)N[C@@H](Cc1ccccc1)C(=O)OCc1ccccc1 | > 100 | > 100 | > 100 | > 100 | > 100 | > 100 | > 100 | > 100 | > 100 | > 100 | > 100 | > 100 | > 100 | > 100 | > 100 | > 100 | > 100 |  | > 100 | > 100
13 | O=c1[nH]c(=O)n(C2OC(CO)C(O)C2O)cc1Oc1ccccc1 (configuration not stated) | > 100 | > 100 | > 100 | > 100 | > 100 | > 100 | > 100 | > 100 | > 100 | > 100 | > 100 | > 100 | > 100 | > 100 | > 100 | > 100 | > 100 | > 100 | > 100 | > 100
14 | COc1ccc2nc3ccc(OC)cc3c(SCc3ccccc3)c2c1 | > 100 | > 100 | > 100 | > 100 | > 100 | > 100 | > 100 | > 100 | > 100 | > 100 | > 100 | > 100 | > 100 | > 100 | > 100 | > 100 | > 100 | > 100 | > 100 | > 100
15 | COc1ccc(/C=C2\CCC/C(=C\c3ccc(O)c(CN4CCCCC4)c3)C2=O)cc1 | 51.7 | 47.1 | 36.5 | 19.1 | 45.8 | 33.4 | 40.7 | > 100 | 41.3 | 61.3 | 52.8 | 39.5 | > 74.6 | 32.8 | 26.1 | 19.3 | 46.3 | 43 | 42.7 | 40.4
16 | CC(C)Cc1cc2c(cc1O)CCC1C2CC[C@@]2(C)C1CC[C@@H]2O (some centres not stated) | 26.3 | 35.5 | 21.9 | 26 | 14.2 | 36.1 | 24.3 | 23.7 | 26.4 | 34.2 | 21.4 | 20.3 | 35.6 | 20.9 | 18.2 | 23.6 | 16.6 | 15.7 | 21 | 35.1
17 | COC(=O)[C@H](CC(C)C)Nc1c(O)c2c(c(O)c1Cl)C(=O)C=CC2=O | > 10 | > 10 | > 10 | > 10 | > 10 | > 10 | > 10 | > 10 | > 10 | > 10 | > 10 | > 10 | > 10 | > 10 | 5.74 | > 10 | 6 | > 10 | > 10 | > 10
18 | C[C@@H](NC(=O)c1ccc(CNC(=O)/C=C/c2cccc(Oc3ccccc3)c2)cc1)c1ccccc1 | > 65.8 | > 90.4 | > 100 | > 100 | > 73.5 | > 100 | > 100 | 33.4 | > 100 | > 100 | > 57.8 | > 100 | 44.2 | > 100 | > 100 | 35.4 | > 100 | > 100 | > 100 | > 100
19 | CCOP(=O)(OCC)/C(C#N)=C/c1cnc[nH]1 | > 100 | > 100 | > 100 | > 100 | > 100 | > 100 | > 100 | > 100 | > 100 | > 100 | > 100 | > 100 | > 100 | > 100 | > 100 | > 100 | > 100 | > 100 | > 100 | > 100
20 | c1ccc2c(c1)CCc1[nH]c3c(c1-2)-c1ccccc1CC3 | > 100 | > 100 | > 100 | > 100 | > 100 | > 100 | > 100 | > 100 | > 100 | > 100 | > 100 | > 100 | > 100 | > 100 | > 100 | > 100 | > 100 | > 100 | > 100 | > 100
21 | O=C(O)CCCc1ccc2ccccc2c1 | > 100 | > 100 | > 100 | > 100 |  | > 100 | > 100 | > 100 | > 100 | > 100 | > 100 | > 100 | > 100 | > 100 | > 100 | > 100 | > 100 | > 100 | > 100 | > 100
22 | CC(=O)C1=C(C)N(c2ccc(C)cc2)C2(O)C3=C(C(=O)c4ccccc4C3=O)C(O)=CC12Cl (configuration not stated) | > 100 | 10.3 | 57.9 | 33.2 | > 100 | 31.6 | > 100 | > 100 | 34 | 71.6 | > 100 | 22.2 | 87.1 | 28.3 | > 100 | > 100 | 45 | 33 | > 100 | 55.6
23 | O=C(C/C(=N/O)c1cc(-c2ccccc2)no1)c1ccccc1 | > 100 | > 100 | > 100 | 37.2 | 56.7 | > 100 | 38.4 | 66.6 | 43.3 | > 100 | > 100 | > 100 | > 100 | 69.1 | > 100 | 42.3 | 41.9 | > 100 | > 100 | > 100
24 | Nc1nc2c(ncn2Cc2ccccc2CO)c(=O)[nH]1 | > 100 | > 100 | > 100 | > 100 | > 100 | > 100 | > 100 | > 100 | > 100 | > 100 | > 100 | > 100 | > 100 | > 100 | > 100 | > 100 | > 100 | > 100 | > 100 | > 100
